Reference: patent US20260256923A1, “NEW RECRUITMENT ELEMENT OF UBIQUITIN LIGASE AND USE THEREOF” (SHENZHEN LINGGENE BIOTECH CO., LTD., priority 2023, published 2026)

Legend:
[1] = test system: metastatic castration-resistant prostate cancer; settings: patients carrying AR T878X and/or H875Y mutations; cited from earlier work
STAT3 [2] = molecular target: T1, STAT3 (Homo sapiens, UniProt P40763); assay: STAT3 protein degradation in HeLa cells, western blot; type: cell-based; parameters: endogenous in cells; host or cells: HeLa; settings: 500 nM, 6 h
T1 sequence (P40763 whole entry): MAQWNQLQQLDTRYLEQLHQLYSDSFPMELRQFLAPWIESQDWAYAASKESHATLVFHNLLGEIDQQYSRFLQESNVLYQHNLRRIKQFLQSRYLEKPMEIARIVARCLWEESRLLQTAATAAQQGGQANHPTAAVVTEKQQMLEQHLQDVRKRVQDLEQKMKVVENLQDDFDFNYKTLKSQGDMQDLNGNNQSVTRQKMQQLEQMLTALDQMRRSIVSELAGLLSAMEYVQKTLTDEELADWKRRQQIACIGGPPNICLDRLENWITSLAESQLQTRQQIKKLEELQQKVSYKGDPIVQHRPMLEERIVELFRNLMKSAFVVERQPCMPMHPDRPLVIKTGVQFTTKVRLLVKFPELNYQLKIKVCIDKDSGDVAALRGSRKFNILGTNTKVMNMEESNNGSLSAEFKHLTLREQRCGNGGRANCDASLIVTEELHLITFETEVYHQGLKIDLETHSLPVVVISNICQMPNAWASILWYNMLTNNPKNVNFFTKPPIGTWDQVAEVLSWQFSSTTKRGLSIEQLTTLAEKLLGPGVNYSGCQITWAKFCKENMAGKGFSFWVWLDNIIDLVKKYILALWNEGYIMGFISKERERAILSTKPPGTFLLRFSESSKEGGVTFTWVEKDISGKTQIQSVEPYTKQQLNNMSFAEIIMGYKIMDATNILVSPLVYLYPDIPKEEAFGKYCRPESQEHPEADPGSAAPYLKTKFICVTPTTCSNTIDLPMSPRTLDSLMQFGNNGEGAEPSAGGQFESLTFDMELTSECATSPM
Experimental: HeLa cells were incubated with 500 nM said first PROTAC product 1411-S3-1 or second PROTAC product 1411-S3-2, and corresponding cell samples were collected at time gradients of 0 h, 2 h, 6 h, 12 h, 18 h, and 24 h for protein extraction and subsequent western blot assay.
HeLa cells were incubated with the first PROTAC product 1411-S3-1 or the second PROTAC product 1411-S3-2 at concentrations of 0 nM, 100 nM, 200 nM, 500 nM, and 1000 nM. After 6 h, cell samples were collected for protein extraction and subsequent western blot assay. […] The half-maximal degradation concentrations (DC50) of the first PROTAC product 1411-S3-1 and the second PROTAC product 1411-S3-2 against STAT3 at the protein level were 262.5 nM and 136.3 nM, respectively, as shown in FIG. 19.
(§1) HeLa cells were incubated with 500 nM double-stranded transcription factor decoy oligonucleotide S3, AS1411, the first PROTAC product 1411-S3-1, the second PROTAC product 1411-S3-2, or AS1411+double-stranded transcription factor decoy oligonucleotide S3. After 6 h, cell samples were collected for protein extraction and subsequent western blot assay.
HeLa cells were incubated with 500 nM said first PROTAC product 1411-S3-1 or second PROTAC product 1411-S3-2, and proteasome inhibitor MG132 was added. After 6 h, cell samples were collected for protein extraction and subsequent western blot assay. […]

STAT3 [3] = molecular target: T1, STAT3; assay: STAT3 protein degradation in HOS osteosarcoma cells, western blot; type: cell-based; parameters: endogenous in cells; settings: 500 nM, 6 h
Experimental: as §1, with “HOS osteosarcoma” for “HeLa”

Compound | antitumor activity and clinical benefit [1] | protein level of STAT3 (STAT3 [2]) | protein level of STAT3 (STAT3 [3])
N#Cc1ccc(O[C@H]2CC[C@H](NC(=O)c3ccc(N4CCC(CN5CCN(c6cc7c(cc6F)C(=O)N(C6CCC(=O)NC6=O)C7=O)CC5)CC4)nn3)CC2)cc1Cl (stereo partly drawn) [ARV-110, Bavdegalutamide] | exhibits potent antitumor activity and clinical benefit |  | 
S3: double-stranded transcription factor decoy oligonucleotide that specifically recognizes STAT3; strands SEQ ID NO: 5 and 6 (chain 1 CTTCTGGGAAA; chain 2 TTTCCCAGAAG; DNA, backbone and methylation of C not given here; double-stranded decoy) |  | only the first PROTAC product 1411-S3-1 and the second PROTAC product 1411-S3-2 can reduce the protein level of transcription factor STAT3 | only the first PROTAC product 1411-S3-1 and the second PROTAC product 1411-S3-2 can reduce the protein level of transcription factor STAT3
